#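 Grown in 96-well plates, cells were treated for 48 hours with each compound at five concentrations. Insufficient inhibition: endpoint recorded as highest concentration tested. GI50 marks 50% less growth. TGI is the concentration that stops growth completely.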
# What was measured:
# Assay in all cases: growth of human tumour cells (NCI), 48 h
# SK-MEL-28 melanoma = tested on: SK-MEL-28 melanoma
# XF 498 CNS = tested on: XF 498 CNS
# KM20L2 colon = tested on: KM20L2 colon
# SF-539 CNS = tested on: SF-539 CNS
# HT29 colon = tested on: HT29 colon
# EKVX NSCLC = tested on: EKVX NSCLC
# NCI-H460 lung = tested on: NCI-H460 lung
# RPMI-8226 leukemia = tested on: RPMI-8226 leukemia
# RXF-631 renal = tested on: RXF-631 renal
# M19-MEL melanoma = tested on: M19-MEL melanoma
# DMS 273 small cell lung = tested on: DMS 273 small cell lung
# UO-31 renal = tested on: UO-31 renal
# SF-268 CNS = tested on: SF-268 CNS
# SNB-75 CNS = tested on: SNB-75 CNS
# 786-0 renal = tested on: 786-0 renal
# A498 renal = tested on: A498 renal
# MOLT-4 leukemia = tested on: MOLT-4 leukemia
# OVCAR-8 ovarian = tested on: OVCAR-8 ovarian
# SK-MEL-5 melanoma = tested on: SK-MEL-5 melanoma
# M14 melanoma = tested on: M14 melanoma
# TK-10 renal = tested on: TK-10 renal
# OVCAR-4 ovarian = tested on: OVCAR-4 ovarian
# IGROV1 ovarian = tested on: IGROV1 ovarian
# HCT-15 colon = tested on: HCT-15 colon
# NCI-H226 lung = tested on: NCI-H226 lung
# NCI-H23 lung = tested on: NCI-H23 lung
# HCC-2998 colon = tested on: HCC-2998 colon
# OVCAR-3 ovarian = tested on: OVCAR-3 ovarian
# SK-OV-3 ovarian = tested on: SK-OV-3 ovarian
# DLD-1 colon = tested on: DLD-1 colon
# SN12C renal = tested on: SN12C renal
# K-562 leukemia = tested on: K-562 leukemia
# SW-620 colon = tested on: SW-620 colon
# KM12 colon = tested on: KM12 colon
# SK-MEL-2 melanoma = tested on: SK-MEL-2 melanoma
# UACC-62 melanoma = tested on: UACC-62 melanoma
# SNB-19 CNS = tested on: SNB-19 CNS
# LXFL 529 NSCLC = tested on: LXFL 529 NSCLC
# ACHN renal = tested on: ACHN renal
# A549 NSCLC = tested on: A549 NSCLC
# HL-60(TB) leukemia = tested on: HL-60(TB) leukemia
# LOX IMVI melanoma = tested on: LOX IMVI melanoma
# HOP-62 NSCLC = tested on: HOP-62 NSCLC
# COLO 205 colon = tested on: COLO 205 colon
# OVCAR-5 ovarian = tested on: OVCAR-5 ovarian
# CCRF-CEM leukemia = tested on: CCRF-CEM leukemia
# MALME-3M melanoma = tested on: MALME-3M melanoma
# HCT-116 colon = tested on: HCT-116 colon
# SNB-78 CNS = tested on: SNB-78 CNS
# UACC-257 melanoma = tested on: UACC-257 melanoma
# CAKI-1 renal = tested on: CAKI-1 renal
# SF-295 CNS = tested on: SF-295 CNS
# DMS 114 small cell lung = tested on: DMS 114 small cell lung
# HOP-18 NSCLC = tested on: HOP-18 NSCLC
# NCI-H522 lung = tested on: NCI-H522 lung
# U251 CNS = tested on: U251 CNS
# HOP-92 NSCLC = tested on: HOP-92 NSCLC
# RXF 393 renal = tested on: RXF 393 renal
smiles,measurement,setting,value
CCO.CCO.Oc1ccc(Nc2ncns2)cc1.Oc1ccc(Nc2ncns2)cc1.[Ti],GI50,SK-MEL-28 melanoma,53 µM
same,TGI,SK-MEL-28 melanoma,> 100 µM
same,GI50,XF 498 CNS,44.9 µM
same,TGI,XF 498 CNS,> 100 µM
same,GI50,KM20L2 colon,> 100 µM
same,TGI,KM20L2 colon,> 100 µM
same,GI50,SF-539 CNS,34.5 µM
same,TGI,SF-539 CNS,> 100 µM
same,GI50,HT29 colon,31.5 µM
same,TGI,HT29 colon,> 100 µM
same,GI50,EKVX NSCLC,34.6 µM
same,TGI,EKVX NSCLC,87.9 µM
same,GI50,NCI-H460 lung,26.7 µM
same,TGI,NCI-H460 lung,87.7 µM
same,GI50,RPMI-8226 leukemia,31.3 µM
same,TGI,RPMI-8226 leukemia,> 100 µM
same,GI50,RXF-631 renal,33 µM
same,TGI,RXF-631 renal,> 100 µM
same,GI50,M19-MEL melanoma,44.5 µM
same,TGI,M19-MEL melanoma,> 100 µM
same,GI50,DMS 273 small cell lung,25.3 µM
same,TGI,DMS 273 small cell lung,80.7 µM
same,GI50,UO-31 renal,41.6 µM
same,TGI,UO-31 renal,> 100 µM
same,GI50,SF-268 CNS,36.2 µM
same,TGI,SF-268 CNS,> 100 µM
same,GI50,SNB-75 CNS,15.8 µM
same,TGI,SNB-75 CNS,69.1 µM
same,GI50,786-0 renal,49.6 µM
same,TGI,786-0 renal,> 100 µM
same,GI50,A498 renal,28.6 µM
same,TGI,A498 renal,74.9 µM
same,GI50,MOLT-4 leukemia,27.5 µM
same,TGI,MOLT-4 leukemia,> 100 µM
same,GI50,OVCAR-8 ovarian,39.7 µM
same,TGI,OVCAR-8 ovarian,> 100 µM
same,GI50,SK-MEL-5 melanoma,23.4 µM
same,TGI,SK-MEL-5 melanoma,72.3 µM
same,GI50,M14 melanoma,45.4 µM
same,TGI,M14 melanoma,> 100 µM
same,GI50,TK-10 renal,50.8 µM
same,TGI,TK-10 renal,> 100 µM
same,GI50,OVCAR-4 ovarian,38.8 µM
same,TGI,OVCAR-4 ovarian,> 100 µM
same,GI50,IGROV1 ovarian,93 µM
same,TGI,IGROV1 ovarian,> 100 µM
same,GI50,HCT-15 colon,48.1 µM
same,TGI,HCT-15 colon,> 100 µM
same,GI50,NCI-H226 lung,> 100 µM
same,TGI,NCI-H226 lung,> 100 µM
same,GI50,NCI-H23 lung,27.6 µM
same,TGI,NCI-H23 lung,91.8 µM
same,GI50,HCC-2998 colon,53.1 µM
same,TGI,HCC-2998 colon,> 100 µM
same,GI50,OVCAR-3 ovarian,55.8 µM
same,TGI,OVCAR-3 ovarian,> 100 µM
same,GI50,SK-OV-3 ovarian,> 100 µM
same,TGI,SK-OV-3 ovarian,> 100 µM
same,GI50,DLD-1 colon,36.5 µM
same,TGI,DLD-1 colon,> 100 µM
same,GI50,SN12C renal,67 µM
same,TGI,SN12C renal,> 100 µM
same,GI50,K-562 leukemia,29 µM
same,TGI,K-562 leukemia,> 100 µM
same,GI50,SW-620 colon,39.5 µM
same,TGI,SW-620 colon,> 100 µM
same,GI50,KM12 colon,47.5 µM
same,TGI,KM12 colon,> 100 µM
same,GI50,SK-MEL-2 melanoma,27.6 µM
same,TGI,SK-MEL-2 melanoma,70.7 µM
same,GI50,UACC-62 melanoma,45.9 µM
same,TGI,UACC-62 melanoma,> 100 µM
same,GI50,SNB-19 CNS,64.6 µM
same,TGI,SNB-19 CNS,> 100 µM
same,GI50,LXFL 529 NSCLC,24.7 µM
same,TGI,LXFL 529 NSCLC,> 100 µM
same,GI50,ACHN renal,33.2 µM
same,TGI,ACHN renal,> 100 µM
same,GI50,A549 NSCLC,43.6 µM
same,TGI,A549 NSCLC,> 100 µM
same,GI50,HL-60(TB) leukemia,24.7 µM
same,TGI,HL-60(TB) leukemia,74.1 µM
same,GI50,LOX IMVI melanoma,30.1 µM
same,TGI,LOX IMVI melanoma,> 100 µM
same,GI50,HOP-62 NSCLC,71.5 µM
same,TGI,HOP-62 NSCLC,> 100 µM
same,GI50,COLO 205 colon,21.5 µM
same,TGI,COLO 205 colon,47.4 µM
same,GI50,OVCAR-5 ovarian,> 100 µM
same,TGI,OVCAR-5 ovarian,> 100 µM
same,GI50,CCRF-CEM leukemia,27.7 µM
same,TGI,CCRF-CEM leukemia,> 100 µM
same,GI50,MALME-3M melanoma,38.3 µM
same,TGI,MALME-3M melanoma,> 100 µM
same,GI50,HCT-116 colon,30.2 µM
same,TGI,HCT-116 colon,> 100 µM
same,GI50,SNB-78 CNS,41.6 µM
same,TGI,SNB-78 CNS,> 100 µM
same,GI50,UACC-257 melanoma,30.2 µM
same,TGI,UACC-257 melanoma,> 100 µM
same,GI50,CAKI-1 renal,47.5 µM
same,TGI,CAKI-1 renal,> 100 µM
same,GI50,SF-295 CNS,69.9 µM
same,TGI,SF-295 CNS,> 100 µM
same,GI50,DMS 114 small cell lung,21.6 µM
same,TGI,DMS 114 small cell lung,67.5 µM
same,GI50,HOP-18 NSCLC,> 100 µM
same,TGI,HOP-18 NSCLC,> 100 µM
same,GI50,NCI-H522 lung,13.6 µM
same,TGI,NCI-H522 lung,28.3 µM
Cc1ccc(S(=O)(=O)n2cc(/C=C/C#N)c(/C=C/C#N)c2)cc1,TGI,SK-MEL-28 melanoma,> 100 µM
same,TGI,XF 498 CNS,> 100 µM
same,TGI,KM20L2 colon,> 100 µM
same,TGI,SF-539 CNS,> 100 µM
same,TGI,HT29 colon,> 100 µM
same,TGI,EKVX NSCLC,> 100 µM
same,TGI,NCI-H460 lung,> 100 µM
same,TGI,RPMI-8226 leukemia,> 100 µM
same,TGI,RXF-631 renal,> 100 µM
same,TGI,M19-MEL melanoma,> 100 µM
same,TGI,DMS 273 small cell lung,> 100 µM
same,TGI,UO-31 renal,> 100 µM
same,TGI,SF-268 CNS,> 100 µM
same,TGI,SNB-75 CNS,> 100 µM
same,TGI,786-0 renal,> 100 µM
same,TGI,A498 renal,> 100 µM
same,TGI,MOLT-4 leukemia,> 100 µM
same,TGI,OVCAR-8 ovarian,> 100 µM
same,TGI,U251 CNS,> 100 µM
same,TGI,SK-MEL-5 melanoma,> 100 µM
same,TGI,M14 melanoma,> 100 µM
same,TGI,TK-10 renal,> 100 µM
same,TGI,OVCAR-4 ovarian,> 100 µM
same,TGI,IGROV1 ovarian,> 100 µM
same,TGI,HCT-15 colon,> 100 µM
same,TGI,NCI-H23 lung,> 100 µM
same,TGI,OVCAR-3 ovarian,> 100 µM
same,TGI,SK-OV-3 ovarian,> 100 µM
same,TGI,SN12C renal,> 100 µM
same,TGI,K-562 leukemia,> 100 µM
same,TGI,SW-620 colon,> 100 µM
same,TGI,HOP-92 NSCLC,86.7 µM
same,TGI,KM12 colon,> 100 µM
same,TGI,SK-MEL-2 melanoma,> 100 µM
same,TGI,UACC-62 melanoma,> 100 µM
same,TGI,SNB-19 CNS,> 100 µM
same,TGI,LXFL 529 NSCLC,> 100 µM
same,TGI,ACHN renal,> 100 µM
same,TGI,A549 NSCLC,> 100 µM
same,TGI,HL-60(TB) leukemia,> 100 µM
same,TGI,LOX IMVI melanoma,> 100 µM
same,TGI,HOP-62 NSCLC,> 100 µM
same,TGI,COLO 205 colon,> 100 µM
same,TGI,OVCAR-5 ovarian,> 100 µM
same,TGI,CCRF-CEM leukemia,> 100 µM
same,TGI,MALME-3M melanoma,> 100 µM
same,TGI,UACC-257 melanoma,> 100 µM
same,TGI,RXF 393 renal,> 100 µM
same,TGI,SF-295 CNS,> 100 µM
same,TGI,DMS 114 small cell lung,> 100 µM
same,TGI,HOP-18 NSCLC,> 100 µM

# Reference: PubChem BioAssay (NCI)
